The numbers were not newly measured in US20240032540A1, “MICROPARTICLE COMPOSITIONS COMPRISING FUNGICIDES” (BASF CORPORATION, priority 2020, published 2024), which cites them from elsewhere.

Regarding `O=C(NCCc1ncc(C(F)(F)F)cc1Cl)c1ccccc1C(F)(F)F` [Fluopyram, N-{2-[3-chloro-5-(trifluoromethyl)-2-pyridyl]ethyl}-a,a,a-trifluoro-o-toluamide], the solubility in water result is given as “only sparingly soluble in water”.
